{
  "source": "patent US6316410A",
  "about": "“Parathyroid hormone analogues for the treatment of osteoporosis” (National Research Council of Canada, priority 1999, dated 2001)",
  "molecules": {"B1": {"name": "hPTH(1-28)NH2 (peptide)", "peptide": "SVSEIQLMHNLGKHLNSMERVEWLRKKL-NH2"}, "B2": {"name": "hPTH(1-29)NH2 (peptide)", "peptide": "SVSEIQLMHNLGKHLNSMERVEWLRKKLQ-NH2"}, "B3": {"name": "[Leu^27]cyclo(Glu^22-Lys^26)-hPTH-(1-28)-NH2 (peptide)", "peptide": "SVSEIQLMHNLGKHLNSMERVEWLRKLL-NH2", "modifications": "lactam 22-26; N-terminus assumed", "SMILES": "CC[C@H](C)[C@H](NC(=O)[C@H](CCC(=O)O)NC(=O)[C@H](CO)NC(=O)[C@@H](NC(=O)[C@@H](N)CO)C(C)C)C(=O)N[C@@H](CCC(N)=O)C(=O)N[C@@H](CC(C)C)C(=O)N[C@@H](CCSC)C(=O)N[C@@H](Cc1c[nH]cn1)C(=O)N[C@@H](CC(N)=O)C(=O)N[C@@H](CC(C)C)C(=O)NCC(=O)N[C@@H](CCCCN)C(=O)N[C@@H](Cc1c[nH]cn1)C(=O)N[C@@H](CC(C)C)C(=O)N[C@@H](CC(N)=O)C(=O)N[C@@H](CO)C(=O)N[C@@H](CCSC)C(=O)N[C@@H](CCC(=O)O)C(=O)N[C@@H](CCCNC(=N)N)C(=O)N[C@H](C(=O)N[C@H]1CCC(=O)NCCCC[C@@H](C(=O)N[C@@H](CC(C)C)C(=O)N[C@@H](CC(C)C)C(N)=O)NC(=O)[C@H](CCCNC(=N)N)NC(=O)[C@H](CC(C)C)NC(=O)[C@H](Cc2c[nH]c3ccccc23)NC1=O)C(C)C"}, "B4": {"name": "[Leu^27]cyclo(Glu^22-Lys^26)-hPTH-(1-29)-NH2 (peptide)", "peptide": "SVSEIQLMHNLGKHLNSMERVEWLRKLLQ-NH2", "modifications": "lactam 22-26; N-terminus assumed", "SMILES": "CC[C@H](C)[C@H](NC(=O)[C@H](CCC(=O)O)NC(=O)[C@H](CO)NC(=O)[C@@H](NC(=O)[C@@H](N)CO)C(C)C)C(=O)N[C@@H](CCC(N)=O)C(=O)N[C@@H](CC(C)C)C(=O)N[C@@H](CCSC)C(=O)N[C@@H](Cc1c[nH]cn1)C(=O)N[C@@H](CC(N)=O)C(=O)N[C@@H](CC(C)C)C(=O)NCC(=O)N[C@@H](CCCCN)C(=O)N[C@@H](Cc1c[nH]cn1)C(=O)N[C@@H](CC(C)C)C(=O)N[C@@H](CC(N)=O)C(=O)N[C@@H](CO)C(=O)N[C@@H](CCSC)C(=O)N[C@@H](CCC(=O)O)C(=O)N[C@@H](CCCNC(=N)N)C(=O)N[C@H](C(=O)N[C@H]1CCC(=O)NCCCC[C@@H](C(=O)N[C@@H](CC(C)C)C(=O)N[C@@H](CC(C)C)C(=O)N[C@@H](CCC(N)=O)C(N)=O)NC(=O)[C@H](CCCNC(=N)N)NC(=O)[C@H](CC(C)C)NC(=O)[C@H](Cc2c[nH]c3ccccc23)NC1=O)C(C)C"}, "B5": {"name": "[Glu^17, Leu^27]cyclo(Lys^13-Glu^17, Glu^22-Lys^26)-hPTH-(1-31)-NH2 (peptide)", "peptide": "SVSEIQLMHNLGKHLNEMERVEWLRKLLQDV-NH2", "modifications": "lactam 13-17, 22-26; N-terminus assumed", "SMILES": "CC[C@H](C)[C@H](NC(=O)[C@H](CCC(=O)O)NC(=O)[C@H](CO)NC(=O)[C@@H](NC(=O)[C@@H](N)CO)C(C)C)C(=O)N[C@@H](CCC(N)=O)C(=O)N[C@@H](CC(C)C)C(=O)N[C@@H](CCSC)C(=O)N[C@@H](Cc1c[nH]cn1)C(=O)N[C@@H](CC(N)=O)C(=O)N[C@@H](CC(C)C)C(=O)NCC(=O)N[C@H]1CCCCNC(=O)CC[C@@H](C(=O)N[C@@H](CCSC)C(=O)N[C@@H](CCC(=O)O)C(=O)N[C@@H](CCCNC(=N)N)C(=O)N[C@H](C(=O)N[C@H]2CCC(=O)NCCCC[C@@H](C(=O)N[C@@H](CC(C)C)C(=O)N[C@@H](CC(C)C)C(=O)N[C@@H](CCC(N)=O)C(=O)N[C@@H](CC(=O)O)C(=O)N[C@H](C(N)=O)C(C)C)NC(=O)[C@H](CCCNC(=N)N)NC(=O)[C@H](CC(C)C)NC(=O)[C@H](Cc3c[nH]c4ccccc34)NC2=O)C(C)C)NC(=O)[C@H](CC(N)=O)NC(=O)[C@H](CC(C)C)NC(=O)[C@H](Cc2c[nH]cn2)NC1=O"}},
  "key": {"[1]": {"test_system": "adenylyl cyclase of ROS 17/2 cells", "type": "cell-based, rat", "source_text": "Adenylyl cyclase activities of 4- to 5-day cultures of ROS 17/2 cells in 24-well plates were estimated from the rate of formation of [^3 H]-cAMF from the cellular ATP pool, which had been labelled with [^3 H]-adenine before exposure to hPTH or its analogues in accordance with Jouishomme, H. Whitfield, J. F.; Gagnon, L.; Maclean, S.; Isaacs, R.; Chakravarthy, B.; Durkin, J.; Neugebauer, W.; Willick, G.; Rixon, R. H. Further Definition of the Protein Kinase C Activation Domain of the Parathyroid Hormone. J. Bone Miner. Res. 1994, 9, 943-949."}, "[2]": {"test_system": "ovariectomized rat model", "settings": "ovariectomized rats, literature; cited from earlier work"}, "[3]": {"test_system": "ovariectomized (OVX) rats", "experiment": "Growth of trabeculae in the distal femurs of ovariectomized (OVX) rats, injections week 9 to 15 after OVX", "type": "in vivo", "settings": "5 nmoles/100 g of body weight s.c. daily, FIG. 8, in words", "source_text": "Rats were OVXed (OVX) or sham-OVXed (sham) and given daily subcutaneous injections of vehicle between the end of the 9th week and the end of the 15th week after OVX. Injection quantities were 5 nmoles/100 g of body weight. OVXed rats received daily subcutaneous injections of: vehicle (OVX), hPTH(1-31)NH2, 5 nmol (linear), [Leu^27 ]cyclo(Glu^22 -Lys^26)hPTH(1-28)NH2, 5 nmol (cyclic), or [Glu^17,Leu^27]cyclo(Lys^13 -Glu^17,Glu^22 Lys^26)hPTH(1-31)NH2, 5nmol(double cyclic). The femurs were demineralized and stained with Sanderson's rapid bone stain. […] This improvement is not correlated with their relative AC-stimulating activities, but likely results from greater stability to proteolytic attack and greater ability to be transported from the site of injection."}, "[4]": {"biological_target": "PTH receptor"}, "[5]": {"settings": "ROS 17/2 cells, concentration required to obtain half-maximal activity"}},
  "note": "“Also recorded” adds a separate entry of the source. Like-named read-outs stand apart in the source and are kept apart here. Positions of bridges follow the written chain, without caps; N, C: chain ends. No end group written: not given here.",
  "data": [
    {"molecule": "SVSEIQLMHNLGKHLNSMERVEWLRKKL-NH2 [hPTH(1-28)NH2, reference compound]", "values": [
      {"measurement": "AC-Stimulation (ED50%, nM)", "setting": "[1]", "value": 24, "unit": "nM"}
    ]},
    {"molecule": "SVSEIQLMHNLGKHLNSMERVEWLRKKLQ-NH2 [hPTH(1-29)NH2, reference compound]", "values": [
      {"measurement": "AC-Stimulation (ED50%, nM)", "setting": "[1]", "value": 24, "unit": "nM"}
    ]},
    {"molecule": "Ser Val Ser Glu Ile Gln Leu Met His Asn Leu Gly Lys His Leu Asn Ser Met Glu Arg Val Glu Trp Leu Arg Lys Lys Leu Gin Asp Val-NH2 (SVSEIQLMHNLGKHLNSMERVEWLRKKLQDV-NH2) [hPTH-(1-31)-NH2, linear human parathyroid hormone fragment 1-31 amide]", "values": [
      {"measurement": "anabolic activity / restoration of bone loss", "setting": "[2]", "value": "fully active in the restoration of bone loss"}
    ]},
    {"molecule": "[Glu^17, Leu^27 ]cyclo(Lys^13 -Glu^17, Glu^22 -Lys^26)-hPTH-(1-31)-NH2 (SVSEIQLMHNLGKHLNEMERVEWLRKLLQDV-NH2; lactam 13-17, 22-26; N-terminus assumed; SMILES CC[C@H](C)[C@H](NC(=O)[C@H](CCC(=O)O)NC(=O)[C@H](CO)NC(=O)[C@@H](NC(=O)[C@@H](N)CO)C(C)C)C(=O)N[C@@H](CCC(N)=O)C(=O)N[C@@H](CC(C)C)C(=O)N[C@@H](CCSC)C(=O)N[C@@H](Cc1c[nH]cn1)C(=O)N[C@@H](CC(N)=O)C(=O)N[C@@H](CC(C)C)C(=O)NCC(=O)N[C@H]1CCCCNC(=O)CC[C@@H](C(=O)N[C@@H](CCSC)C(=O)N[C@@H](CCC(=O)O)C(=O)N[C@@H](CCCNC(=N)N)C(=O)N[C@H](C(=O)N[C@H]2CCC(=O)NCCCC[C@@H](C(=O)N[C@@H](CC(C)C)C(=O)N[C@@H](CC(C)C)C(=O)N[C@@H](CCC(N)=O)C(=O)N[C@@H](CC(=O)O)C(=O)N[C@H](C(N)=O)C(C)C)NC(=O)[C@H](CCCNC(=N)N)NC(=O)[C@H](CC(C)C)NC(=O)[C@H](Cc3c[nH]c4ccccc34)NC2=O)C(C)C)NC(=O)[C@H](CC(N)=O)NC(=O)[C@H](CC(C)C)NC(=O)[C@H](Cc2c[nH]cn2)NC1=O) [double cyclic (13-17 and 22-26 lactams) hPTH 1-31 amide analogue]", "values": [
      {"measurement": "AC-Stimulation (ED50%, nM)", "setting": "[1]; [5]", "value": 13.2, "unit": "nM"},
      {"measurement": "increasing the thickness of the remaining trabeculae", "setting": "[3]", "value": "better than its monocyclic counterpart; also recorded: significantly better than the linear molecule"}
    ]},
    {"molecule": "[Leu^27 ]cyclo(Glu^22 -Lys^26)-hPTH-(1-28)-NH2 (SVSEIQLMHNLGKHLNSMERVEWLRKLL-NH2; lactam 22-26; N-terminus assumed; SMILES CC[C@H](C)[C@H](NC(=O)[C@H](CCC(=O)O)NC(=O)[C@H](CO)NC(=O)[C@@H](NC(=O)[C@@H](N)CO)C(C)C)C(=O)N[C@@H](CCC(N)=O)C(=O)N[C@@H](CC(C)C)C(=O)N[C@@H](CCSC)C(=O)N[C@@H](Cc1c[nH]cn1)C(=O)N[C@@H](CC(N)=O)C(=O)N[C@@H](CC(C)C)C(=O)NCC(=O)N[C@@H](CCCCN)C(=O)N[C@@H](Cc1c[nH]cn1)C(=O)N[C@@H](CC(C)C)C(=O)N[C@@H](CC(N)=O)C(=O)N[C@@H](CO)C(=O)N[C@@H](CCSC)C(=O)N[C@@H](CCC(=O)O)C(=O)N[C@@H](CCCNC(=N)N)C(=O)N[C@H](C(=O)N[C@H]1CCC(=O)NCCCC[C@@H](C(=O)N[C@@H](CC(C)C)C(=O)N[C@@H](CC(C)C)C(N)=O)NC(=O)[C@H](CCCNC(=N)N)NC(=O)[C@H](CC(C)C)NC(=O)[C@H](Cc2c[nH]c3ccccc23)NC1=O)C(C)C) [[Leu^27]c(Glu^22 -Lys^26)hPTH(1-28)NH2, 22-26 lactam cyclic analogue of human parathyroid hormone 1-28 amide with Leu27]", "values": [
      {"measurement": "AC-Stimulation (ED50%, nM)", "setting": "[1]; [5]", "value": 9.6, "unit": "nM"}
    ]},
    {"molecule": "[Leu^27 ]cyclo(Glu^22 -Lys^26)-hPTH-(1-29)-NH2 (SVSEIQLMHNLGKHLNSMERVEWLRKLLQ-NH2; lactam 22-26; N-terminus assumed; SMILES CC[C@H](C)[C@H](NC(=O)[C@H](CCC(=O)O)NC(=O)[C@H](CO)NC(=O)[C@@H](NC(=O)[C@@H](N)CO)C(C)C)C(=O)N[C@@H](CCC(N)=O)C(=O)N[C@@H](CC(C)C)C(=O)N[C@@H](CCSC)C(=O)N[C@@H](Cc1c[nH]cn1)C(=O)N[C@@H](CC(N)=O)C(=O)N[C@@H](CC(C)C)C(=O)NCC(=O)N[C@@H](CCCCN)C(=O)N[C@@H](Cc1c[nH]cn1)C(=O)N[C@@H](CC(C)C)C(=O)N[C@@H](CC(N)=O)C(=O)N[C@@H](CO)C(=O)N[C@@H](CCSC)C(=O)N[C@@H](CCC(=O)O)C(=O)N[C@@H](CCCNC(=N)N)C(=O)N[C@H](C(=O)N[C@H]1CCC(=O)NCCCC[C@@H](C(=O)N[C@@H](CC(C)C)C(=O)N[C@@H](CC(C)C)C(=O)N[C@@H](CCC(N)=O)C(N)=O)NC(=O)[C@H](CCCNC(=N)N)NC(=O)[C@H](CC(C)C)NC(=O)[C@H](Cc2c[nH]c3ccccc23)NC1=O)C(C)C) [[Leu^27]c(Glu^22 -Lys^26)hPTH(1-29)NH2, 22-26 lactam cyclic analogue of human parathyroid hormone 1-29 amide with Leu27]", "values": [
      {"measurement": "AC-Stimulation (ED50%, nM)", "setting": "[1]; [5]", "value": 8.4, "unit": "nM"}
    ]},
    {"molecule": "hPTH(1-30)NH2 (SVSEIQLMHNLGKHLNSMERVEWLRKKLQD-NH2; UniProt P01270 32-61, looked up, fragment) [linear human parathyroid hormone fragment 1-30 amide]", "values": [
      {"measurement": "anabolic activity / restoration of bone loss", "setting": "[2]", "value": "only with much higher doses than used with the (1-31) analogue"}
    ]},
    {"molecule": "B1", "values": [
      {"measurement": "AC-Stimulation (ED50%, nM)", "setting": "[4]", "value": 24, "unit": "nM"}
    ]},
    {"molecule": "B2", "values": [
      {"measurement": "AC-Stimulation (ED50%, nM)", "setting": "[4]", "value": 24, "unit": "nM"}
    ]},
    {"molecule": "B3", "values": [
      {"measurement": "AC-Stimulation (ED50%, nM)", "setting": "[4]", "value": 9.6, "unit": "nM"}
    ]},
    {"molecule": "B4", "values": [
      {"measurement": "AC-Stimulation (ED50%, nM)", "setting": "[4]", "value": 8.4, "unit": "nM"}
    ]},
    {"molecule": "B5", "values": [
      {"measurement": "AC-Stimulation (ED50%, nM)", "setting": "[4]", "value": 13.2, "unit": "nM"}
    ]}
  ]
}
